Data published in patent US9862684B2, “Modulation of K2P channels” (The Regents of the University of California, priority 2013, dated 2018).
Like-named read-outs stand apart in the source and are kept apart here. Values belong to the molecule of their own block, whether it stands above or below them.

Assays:
K2P2.1 (TREK-1) [1] = target: T1, K2P2.1 (TREK-1) (Homo sapiens, UniProt O95069); conditions: cited from earlier work
T1 sequence (O95069 1-426): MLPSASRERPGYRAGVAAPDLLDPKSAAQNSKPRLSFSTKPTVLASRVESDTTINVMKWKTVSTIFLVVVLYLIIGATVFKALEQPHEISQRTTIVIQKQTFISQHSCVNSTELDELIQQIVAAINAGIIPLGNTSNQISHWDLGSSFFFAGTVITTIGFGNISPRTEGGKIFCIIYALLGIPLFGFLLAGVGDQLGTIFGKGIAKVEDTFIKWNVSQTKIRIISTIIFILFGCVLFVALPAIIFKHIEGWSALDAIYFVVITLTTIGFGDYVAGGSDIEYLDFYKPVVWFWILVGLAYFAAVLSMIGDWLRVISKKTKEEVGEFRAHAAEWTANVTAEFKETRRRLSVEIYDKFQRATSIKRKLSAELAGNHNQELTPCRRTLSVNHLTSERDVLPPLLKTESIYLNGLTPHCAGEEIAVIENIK

TREK-1 [2] = target: T2, TREK-1 (Mus musculus, UniProt P97438); test: Antagonist compound examples, modulation of TREK-1 (current inhibition), Table 5; type: cell-based, Murine
T2 construct: expressed in transfected cells
T2 sequence (P97438 1-411 isoform P97438-2): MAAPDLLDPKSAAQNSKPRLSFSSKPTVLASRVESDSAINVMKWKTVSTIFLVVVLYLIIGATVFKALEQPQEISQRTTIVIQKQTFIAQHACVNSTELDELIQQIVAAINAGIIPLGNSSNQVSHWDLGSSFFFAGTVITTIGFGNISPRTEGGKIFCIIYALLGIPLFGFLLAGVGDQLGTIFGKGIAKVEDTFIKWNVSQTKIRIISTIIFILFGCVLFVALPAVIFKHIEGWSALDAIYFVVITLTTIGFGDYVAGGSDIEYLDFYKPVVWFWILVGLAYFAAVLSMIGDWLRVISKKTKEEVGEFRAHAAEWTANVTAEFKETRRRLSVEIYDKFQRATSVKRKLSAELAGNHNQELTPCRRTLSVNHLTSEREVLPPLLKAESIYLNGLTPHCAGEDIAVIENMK
Protocol: (§1) Two-electrode voltage clamp recordings were performed from defolliculated stage V-VI Xenopus oocytes 24-48 hours after injection with 0.015-6.0 ng cRNA, using microelectrodes (0.3-3.0 MΩ) filled with 3M KCl. Data was acquired using the GeneClamp 500B (MDS Analytical Technologies) amplifier controlled by the pClamp software (Molecular Devices), and digitized at 1 kHz using Digidata 1332A (MDS Analytical Technologies). Recording solutions (mM): 2K (96 NaCl, 2 KCl, 1.8 CaCl2, 2 MgCl2), 90K (90 KCl, 8 NaCl, 1.8 CaCl2, 2 MgCl2), were buffered 5 mM HEPES pH 7.4. For K2P recordings, currents we elicited by a 1 second long ramp from −150 to +50 mV from a holding potential of −80 mV (2K), or −100 to +50 mV from a holding potential of 0 mV (90K). For KCNQ2 recordings, currents were elicited by a step protocol from −120 to 60 mV, in 20 mV increments, from a holding potential of −80 mV. Patch-clamp recordings from HEK-293T cells were performed using microelectrodes (2-3 MΩ) filled with 1M KCl. Data was acquired using the Axopatch 200B amplifier controlled by pClamp software, and digitized at 1 kHz using Digidata 1332A. Recording solutions (mM): intracellular (145 KCl, 5 EGTA, 3 MgCl2,) extracellular (150 NaCl, 5 KCl, 3 MgCl2, 1 CaCl2) were buffered with 5 mM HEPES pH 7.2 and 7.4, respectively. Currents were elicited by a 1 second long ramp from −150 to +50 mV from a holding potential of −80 mV. Data were fitted with a modified Hill's equation: I=Imin+(Imax−Imin)/(1+10^((Log EC50−Log [C])*H)), where Imax and Imin are maximal and minimal current values, respectively, EC50 is a half-maximal effective concentration of the compound, and H is the Hill coefficient.

K2P2.1 (TREK-1) [3] = target: T3, K2P2.1 (TREK-1) (Mus musculus, UniProt P97438); test: Two-electrode voltage clamp of Xenopus oocytes expressing K2P2.1 (TREK-1); type: cell-based, Murine; conditions: two-electrode voltage clamp, Xenopus oocytes
T3 construct: expressed in transfected cells; host or cells: Xenopus oocytes (cRNA injection, pGEMHE/pMO)
T3 sequence (P97438 1-411 isoform P97438-2): T2 sequence (P97438 1-411 isoform P97438-2)
Protocol: (§2) Two-electrode voltage clamp recordings were performed from defolliculated stage V-VI Xenopus oocytes 24-48 hours after injection with 0.015-6.0 ng cRNA, using microelectrodes (0.3-3.0 MΩ) filled with 3M KCl. […] Recording solutions (mM): 2K (96 NaCl, 2 KCl, 1.8 CaCl2, 2 MgCl2), 90K (90 KCl, 8 NaCl, 1.8 CaCl2, 2 MgCl2), were buffered 5 mM HEPES pH 7.4. For K2P recordings, currents we elicited by a 1 second long ramp from −150 to +50 mV from a holding potential of −80 mV (2K), or −100 to +50 mV from a holding potential of 0 mV (90K). For KCNQ2 recordings, currents were elicited by a step protocol from −120 to 60 mV, in 20 mV increments, from a holding potential of −80 mV. […] Currents were elicited by a 1 second long ramp from −150 to +50 mV from a holding potential of −80 mV.

Solubility (remarks) = type: physicochemical
Kv7.2 (KCNQ2) = target: T4, Kv7.2 (KCNQ2) (Homo sapiens, UniProt O43526); test: Two-electrode voltage clamp, Xenopus oocytes expressing Kv7.2 (KCNQ2); type: cell-based
T4 construct: expressed in transfected cells; host or cells: Xenopus oocytes
Protocol: FIG. 12 Exemplar I-V curves showing the effect of 100 μM ML67-33 Kv7.2 (KCNQ2) measured by two-electrode voltage clamp in Xenopus oocytes in 2 mM [K^+]o pH 7.4. Currents were elicited by a step protocol from −120 to 60 mV, in 20 mV increments, from a holding potential of −80 mV.
as §1

K2P10.1 (TREK-2) = target: T5, K2P10.1 (TREK-2) (Mus musculus, UniProt Q8BUW1); test: Two-electrode voltage clamp, Xenopus oocytes expressing K2P10.1 (TREK-2); type: cell-based, Murine
T5 construct: expressed in transfected cells; host or cells: Xenopus oocytes
T5 sequence (Q8BUW1 1-535): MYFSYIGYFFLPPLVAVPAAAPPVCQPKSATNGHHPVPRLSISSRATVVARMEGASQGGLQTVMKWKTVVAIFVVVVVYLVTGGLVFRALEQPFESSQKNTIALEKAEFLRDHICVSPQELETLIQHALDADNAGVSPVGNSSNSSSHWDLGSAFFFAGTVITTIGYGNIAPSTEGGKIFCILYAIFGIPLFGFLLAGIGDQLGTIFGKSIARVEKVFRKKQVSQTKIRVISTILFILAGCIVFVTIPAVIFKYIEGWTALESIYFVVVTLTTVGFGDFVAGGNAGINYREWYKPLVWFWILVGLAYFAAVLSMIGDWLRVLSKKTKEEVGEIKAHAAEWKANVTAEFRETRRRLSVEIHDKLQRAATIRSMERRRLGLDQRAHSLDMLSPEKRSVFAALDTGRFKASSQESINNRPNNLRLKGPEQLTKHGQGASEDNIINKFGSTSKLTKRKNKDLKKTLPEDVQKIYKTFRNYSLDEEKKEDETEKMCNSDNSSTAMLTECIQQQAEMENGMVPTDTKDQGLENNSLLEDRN
Protocol: (§3) FIG. 7 ML67-33 is a selective activator of heat- and mechanosensitive K2P channels. a-f, Exemplar I-V curves showing the effect of ML67-33 on a, K2P10.1 (TREK-2), b, K2P4.1 (TRAAK), c, K2P3.1 (TASK-1), d, K2P9.1 (TASK-3), e, K2P5.1 (TASK-2), and f, K2P18.1 (TRESK) measured in Xenopus oocytes in 2 mM [K^+]o pH 7.4. Currents were elicited by a voltage ramp from −150 to 50 mV, from a holding potential of −80 mV. g, Quantification of the effect of ML67-33 on the indicated channels. Data (mean±s.e., n≧6, N≧2) was normalized to basal channel activity and fitted to the Hill equation. […] Error bars indicate s.e., n≧6, N≧2.
(§4) Murine K2P channels were cloned into pGEMHE/pMO {Bagriantsev, 2011}, IRES-GFP (Invitrogen), or pYES2-MET25 (high copy 2μ, URA3) {Minor, 1999} for expression in oocytes, HEK-293T cells, and yeast, respectively, using standard molecular biology procedures, and verified by DNA sequencing.
as §1
(§5) There are six K2P subgroups {Noel, 2011} (FIG. 11). […]

TREK-1 [4] = target: T2, TREK-1; test: Modulation of TREK-1 by select compounds (agonist activity), Table 3; type: cell-based, Murine; conditions: agonist activity on TREK-1
Protocol: as §2

K2P3.1 (TASK-1) = target: T6, K2P3.1 (TASK-1) (Mus musculus, UniProt O35111); test: Two-electrode voltage clamp, Xenopus oocytes expressing K2P3.1 (TASK-1); type: cell-based, Murine
T6 construct: expressed in transfected cells; host or cells: Xenopus oocytes
T6 sequence (O35111 whole entry): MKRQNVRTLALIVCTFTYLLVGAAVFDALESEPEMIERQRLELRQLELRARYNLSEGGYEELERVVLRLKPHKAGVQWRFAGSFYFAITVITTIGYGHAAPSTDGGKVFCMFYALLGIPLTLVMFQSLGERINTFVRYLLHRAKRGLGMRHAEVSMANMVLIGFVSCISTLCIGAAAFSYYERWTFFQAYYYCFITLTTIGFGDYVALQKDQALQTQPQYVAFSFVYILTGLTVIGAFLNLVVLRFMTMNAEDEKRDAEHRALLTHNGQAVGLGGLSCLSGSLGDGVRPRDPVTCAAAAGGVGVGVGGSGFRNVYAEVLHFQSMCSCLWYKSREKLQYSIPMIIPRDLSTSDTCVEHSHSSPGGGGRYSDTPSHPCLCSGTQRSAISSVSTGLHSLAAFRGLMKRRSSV
Protocol: as §3, §4, §1, §5

[5] = 25 μM, 0 mV, read-out: inhibition at 25 μM at 0 mV

Compound: CCCCC/C=C\C/C=C\C/C=C\C/C=C\CCCC(=O)O [arachidonic acid]
activation of K2P2.1 (TREK-1) (K2P2.1 (TREK-1) [1]; at 10-20 μM): 3-12 fold

Compound: Cc1ccc(-n2ncc3c(NCCc4ccccc4)ncnc32)cc1 [ML45-2, 1-(4-methylphenyl)-N-(2-phenylethyl)-1H-pyrazolo[3,4-d]pyrimidin-4-amine]
inhibition at 25 µM (TREK-1 [2]; [5]): 25.2%

Compound: Cc1cccc(-n2ncc3c(NCCc4ccccc4)ncnc32)c1 [ML45, 1-(3-methylpyhenyl)-N-(2-phenylethyl)-1H-pyrazolo[3,4-d]pyrimidin-4-amine]
effect on K2P2.1 (TREK-1) function / activity (in words) (K2P2.1 (TREK-1) [3]): inhibitors | inhibition at 25 µM (TREK-1 [2]; read-out: current inhibition at 25 μM): ~30%

Compound: ClC(Cl)Cl [chloroform]
activation of K2P2.1 (TREK-1) (K2P2.1 (TREK-1) [1]; at 1.6 mM): 5.5 fold

Compound: O=C(O)CCn1c2ccc(Cl)cc2c2cc(Cl)ccc21 [ML67, 3-(3,6-dichlorocarbazol-9-yl)propanoic acid]
effect on Kv7.2 (KCNQ2) (in words) (Kv7.2 (KCNQ2); ML67-33 at 100 μM, ML67 concentration not stated): no effect | Emax (fold) at 500 μM (Kv7.2 (KCNQ2); at 500 μM): 1.8 ± 0.0 at 500 μM fold | effect on K2P2.1 (TREK-1) function / activity (in words) (K2P2.1 (TREK-1) [3]): activated the channel | EC50 (K2P10.1 (TREK-2); Xenopus oocytes, 2 mM [K+]o pH 7.4): > 250 µM | Emax (fold) at 500 μM (K2P10.1 (TREK-2); at 500 μM): 10.1 ± 1.1 at 500 μM fold | EC50 (TREK-1 [4]): 213 µM | functional effect / activation (in words) (K2P3.1 (TASK-1); ML67-33 applied at 100 μM, ML67 concentration not stated): not | Emax (fold) at 500 μM (K2P3.1 (TASK-1); at 500 μM): 1.2 ± 0.0 at 500 μM fold

Compound: c1ccc(CCNc2ncnc3c2cnn3-c2ccccc2)cc1 [ML45-1, 1-phenyl-N-(2-phenylethyl)-1H-pyrazolo[3,4-d]pyrimidin-4-amine]
inhibition at 25 µM (TREK-1 [2]; [5]): 22.5%

Results, then the molecule that gave them:

solubility (in words) (Solubility (remarks)): insoluble
Compound: O=C(O)/C=C/n1c2ccc(Cl)cc2c2cc(Cl)ccc21 [ML67-16, (E)-3-(3,6-dichlorocarbazol-9-yl)prop-2-enoic acid]

inhibition at 25 µM (TREK-1 [2]; [5]): 20.7%
Compound: Clc1ccc(-n2ncc3c(NCCc4ccccc4)ncnc32)cc1 [ML45-4, 1-(4-chlorophenyl)-N-(2-phenylethyl)-1H-pyrazolo[3,4-d]pyrimidin-4-amine]

inhibition at 25 µM (TREK-1 [2]; [5]): 31.9%
Compound: Cc1ccc(-n2ncc3c(NCCc4ccccc4)ncnc32)cc1C [ML45-3, 1-(3,4-dimethylphenyl)-N-(2-phenylethyl)-1H-pyrazolo[3,4-d]pyrimidin-4-amine]

solubility (in words) (Solubility (remarks)): insoluble
Compound: O=C(CCn1c2ccc(Cl)cc2c2cc(Cl)ccc21)NO [ML67-19, 3-(3,6-dichlorocarbazol-9-yl)-N-hydroxy-propanamide]

inhibition at 25 µM (TREK-1 [2]; [5]): 2.7%
Compound: Cc1cccc(-n2ncc3c(NCCc4ccc(S(N)(=O)=O)cc4)ncnc32)c1 [ML45-5, 4-(2-{[1-(3-methylphenyl)-1H-pyrazolo[3,4-d]pyrimidin-4-yl]amino}ethyl)benzene-1-sulfonamide]
